What all share (test): relative viability (nuclei count vs DMSO), 5 days (fraction); higher = more cells survive
Compound in the experiment “Daporinad + Linsitinib”: O=C(/C=C/c1cccnc1)NCCCCC1CCN(C(=O)c2ccccc2)CC1 [Daporinad] + C[C@]1(O)C[C@@H](c2nc(-c3ccc4ccc(-c5ccccc5)nc4c3)c3c(N)nccn32)C1 [Linsitinib] (partner 1 µM)
In a few lines: (§1)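 The day after seeding in 1536-well plates, lung cancer cell lines were treated by pin tool with a single drug, or with a fixed anchor-drug dose together with five library-drug doses (not always all listed) in √10 steps. After 5 days, a combined fix-and-stain solution (final 0.05% Triton X-100, 1% formaldehyde, 1 ug/ml Hoechst) was added. Nuclei counted on 4× images gave relative viability as treated counts over vehicle counts, reported as the median of duplicate plates.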

Compound in the experiment “R406 + Phenformin”: COc1cc(Nc2ncc(F)c(Nc3ccc4c(n3)NC(=O)C(C)(C)O4)n2)cc(OC)c1OC [R406] + N=C(N)NC(=N)NCCc1ccccc1 [Phenformin] (partner 250 µM)
In a few lines:
as §1

Compound in the experiment “R406 + Luminespib”: COc1cc(Nc2ncc(F)c(Nc3ccc4c(n3)NC(=O)C(C)(C)O4)n2)cc(OC)c1OC [R406] + CCNC(=O)c1noc(-c2cc(C(C)C)c(O)cc2O)c1-c1ccc(CN2CCOCC2)cc1 [Luminespib] (partner 0.01 µM)
In a few lines: as §1

Compound in the experiment “R406 + Decitabine”: COc1cc(Nc2ncc(F)c(Nc3ccc4c(n3)NC(=O)C(C)(C)O4)n2)cc(OC)c1OC [R406] + Nc1ncn([C@H]2C[C@H](O)[C@@H](CO)O2)c(=O)n1 [Decitabine] (partner 2 µM)
In a few lines:
as §1

Consider RERF-LC-KJ, for which the relative viability came to 0.883 in the experiment with Daporinad + Linsitinib (first compound 0.0005 µM); 0.893 with Daporinad + Linsitinib (first compound 0.001581 µM); 1.01 with Daporinad + Linsitinib (first compound 0.005 µM); 0.949 in the experiment with Daporinad + Linsitinib (first compound 0.01581 µM); 0.43 in the experiment with R406 + Phenformin (first compound 0.08 µM); 0.415 in the experiment with R406 + Phenformin (first compound 0.253 µM). Also, the relative viability with R406 + Phenformin (first compound 0.8 µM) was 0.41; with R406 + Phenformin (first compound 2.53 µM) it was 0.362; in the experiment with R406 + Phenformin (first compound 8 µM) it was 0.286; with R406 + Luminespib (first compound 0.08 µM) it was 1.25; in the experiment with R406 + Luminespib (first compound 0.253 µM) it was 1.3; in the experiment with R406 + Luminespib (first compound 0.8 µM), 1.19. Moreover, the relative viability in the experiment with R406 + Luminespib (first compound 2.53 µM) was determined as 1.25; with R406 + Luminespib (first compound 8 µM), 0.725; with R406 + Decitabine (first compound 0.08 µM), 0.706; with R406 + Decitabine (first compound 0.253 µM) it was 0.628; in the experiment with R406 + Decitabine (first compound 0.8 µM) it was 0.72; with R406 + Decitabine (first compound 2.53 µM), 0.252. Besides, the relative viability in the experiment with R406 + Decitabine (first compound 8 µM) came to 0.529.
As to SK-LU-1, the relative viability in the experiment with Daporinad + Linsitinib (first compound 0.0005 µM) turned out to be 1.26; with Daporinad + Linsitinib (first compound 0.001581 µM) it was 1.13; in the experiment with Daporinad + Linsitinib (first compound 0.005 µM), 1.05; with Daporinad + Linsitinib (first compound 0.01581 µM) it was 1.09; with R406 + Phenformin (first compound 0.08 µM) it was 0.597; with R406 + Phenformin (first compound 0.253 µM), 0.608. Also, the relative viability with R406 + Phenformin (first compound 0.8 µM) was 0.628; in the experiment with R406 + Phenformin (first compound 2.53 µM), 0.175; with R406 + Phenformin (first compound 8 µM), 0.0854; with R406 + Luminespib (first compound 0.08 µM), 0.192; with R406 + Luminespib (first compound 0.253 µM), 0.203; in the experiment with R406 + Luminespib (first compound 0.8 µM), 0.191. Moreover, the relative viability in the experiment with R406 + Luminespib (first compound 2.53 µM) amounted to 0.151; with R406 + Luminespib (first compound 8 µM), 0.101; with R406 + Decitabine (first compound 0.08 µM), 0.583; in the experiment with R406 + Decitabine (first compound 0.253 µM), 0.832; with R406 + Decitabine (first compound 0.8 µM), 0.728; in the experiment with R406 + Decitabine (first compound 2.53 µM) it was 0.599. The relative viability with R406 + Decitabine (first compound 8 µM) was found to be 0.476.
With SK-MES-1, the relative viability stood at 1.1 with Daporinad + Linsitinib (first compound 0.0005 µM); 1.13 with Daporinad + Linsitinib (first compound 0.001581 µM); 1.17 with Daporinad + Linsitinib (first compound 0.005 µM); 0.905 with Daporinad + Linsitinib (first compound 0.01581 µM); 0.645 with R406 + Phenformin (first compound 0.08 µM); 0.685 with R406 + Phenformin (first compound 0.253 µM). The relative viability in the experiment with R406 + Phenformin (first compound 0.8 µM) is 0.706; with R406 + Phenformin (first compound 2.53 µM), 0.583; in the experiment with R406 + Phenformin (first compound 8 µM), 0.349; in the experiment with R406 + Luminespib (first compound 0.08 µM) it was 0.863; with R406 + Luminespib (first compound 0.253 µM) it was 0.858; with R406 + Luminespib (first compound 0.8 µM), 0.957. Also, the relative viability with R406 + Luminespib (first compound 2.53 µM) is 0.232; with R406 + Luminespib (first compound 8 µM) it was 0.137; with R406 + Decitabine (first compound 0.08 µM), 0.351; in the experiment with R406 + Decitabine (first compound 0.253 µM) it was 0.384; with R406 + Decitabine (first compound 0.8 µM), 0.455; with R406 + Decitabine (first compound 2.53 µM), 0.229. The relative viability with R406 + Decitabine (first compound 8 µM) came to 0.181.
On to SW 1573, for which the relative viability with Daporinad + Linsitinib (first compound 0.0005 µM) is 0.889; with Daporinad + Linsitinib (first compound 0.001581 µM) it was 0.848; in the experiment with Daporinad + Linsitinib (first compound 0.005 µM), 0.747; with Daporinad + Linsitinib (first compound 0.01581 µM), 0.551; in the experiment with R406 + Phenformin (first compound 0.08 µM), 0.371; in the experiment with R406 + Phenformin (first compound 0.253 µM) it was 0.43. Also, the relative viability in the experiment with R406 + Phenformin (first compound 0.8 µM) was 0.469; with R406 + Phenformin (first compound 2.53 µM) it was 0.263; in the experiment with R406 + Phenformin (first compound 8 µM) it was 0.151; with R406 + Luminespib (first compound 0.08 µM), 0.396; in the experiment with R406 + Luminespib (first compound 0.253 µM), 0.44; in the experiment with R406 + Luminespib (first compound 0.8 µM), 0.5. Also, the relative viability with R406 + Luminespib (first compound 2.53 µM) amounted to 0.161; with R406 + Luminespib (first compound 8 µM) it was 0.107; in the experiment with R406 + Decitabine (first compound 0.08 µM), 0.398; with R406 + Decitabine (first compound 0.253 µM), 0.579; in the experiment with R406 + Decitabine (first compound 0.8 µM), 0.604; in the experiment with R406 + Decitabine (first compound 2.53 µM), 0.186. Moreover, the relative viability in the experiment with R406 + Decitabine (first compound 8 µM) came out at 0.172.
In the case of UMC-11, the relative viability with Daporinad + Linsitinib (first compound 0.0005 µM) stood at 1.02; in the experiment with Daporinad + Linsitinib (first compound 0.001581 µM), 0.975; with Daporinad + Linsitinib (first compound 0.005 µM), 1.1; with Daporinad + Linsitinib (first compound 0.01581 µM), 1.03; in the experiment with R406 + Phenformin (first compound 0.08 µM) it was 0.356; with R406 + Phenformin (first compound 0.253 µM), 0.35. In addition, the relative viability came out at 0.368 with R406 + Phenformin (first compound 0.8 µM); 0.28 in the experiment with R406 + Phenformin (first compound 2.53 µM); 0.19 in the experiment with R406 + Phenformin (first compound 8 µM); 1.09 with R406 + Luminespib (first compound 0.08 µM); 1.07 with R406 + Luminespib (first compound 0.253 µM); 1.12 with R406 + Luminespib (first compound 0.8 µM). In addition, the relative viability with R406 + Luminespib (first compound 2.53 µM) was determined as 0.835; in the experiment with R406 + Luminespib (first compound 8 µM) it was 0.418; with R406 + Decitabine (first compound 0.08 µM) it was 0.618; with R406 + Decitabine (first compound 0.253 µM) it was 0.703; with R406 + Decitabine (first compound 0.8 µM), 0.75; with R406 + Decitabine (first compound 2.53 µM), 1.34. Besides, the relative viability with R406 + Decitabine (first compound 8 µM) came to 0.312.

For the origin of these results see the supplement of paper PMC10307832.
